Data taken from ChEMBL document CHEMBL1126402, “The design and biological evaluation of a series of 3-hydroxy-3-methylglutaryl coenzyme a (HMG-CoA) reductase inhibitors related to dihydromevinolin” (Bioorg Med Chem Lett, 1992).
pIC50: −log10 of the molar value. Activity calls are given as the source filed them. The calls are words filed in the database; no cut-off is given here.

What was measured:
[1] = molecular target: T1, 3-hydroxy-3-methylglutaryl-coenzyme A reductase (Rattus norvegicus, UniProt P51639); test: Inhibition of microsomal rat liver HMG-CoA reductase
T1 sequence (P51639 whole entry): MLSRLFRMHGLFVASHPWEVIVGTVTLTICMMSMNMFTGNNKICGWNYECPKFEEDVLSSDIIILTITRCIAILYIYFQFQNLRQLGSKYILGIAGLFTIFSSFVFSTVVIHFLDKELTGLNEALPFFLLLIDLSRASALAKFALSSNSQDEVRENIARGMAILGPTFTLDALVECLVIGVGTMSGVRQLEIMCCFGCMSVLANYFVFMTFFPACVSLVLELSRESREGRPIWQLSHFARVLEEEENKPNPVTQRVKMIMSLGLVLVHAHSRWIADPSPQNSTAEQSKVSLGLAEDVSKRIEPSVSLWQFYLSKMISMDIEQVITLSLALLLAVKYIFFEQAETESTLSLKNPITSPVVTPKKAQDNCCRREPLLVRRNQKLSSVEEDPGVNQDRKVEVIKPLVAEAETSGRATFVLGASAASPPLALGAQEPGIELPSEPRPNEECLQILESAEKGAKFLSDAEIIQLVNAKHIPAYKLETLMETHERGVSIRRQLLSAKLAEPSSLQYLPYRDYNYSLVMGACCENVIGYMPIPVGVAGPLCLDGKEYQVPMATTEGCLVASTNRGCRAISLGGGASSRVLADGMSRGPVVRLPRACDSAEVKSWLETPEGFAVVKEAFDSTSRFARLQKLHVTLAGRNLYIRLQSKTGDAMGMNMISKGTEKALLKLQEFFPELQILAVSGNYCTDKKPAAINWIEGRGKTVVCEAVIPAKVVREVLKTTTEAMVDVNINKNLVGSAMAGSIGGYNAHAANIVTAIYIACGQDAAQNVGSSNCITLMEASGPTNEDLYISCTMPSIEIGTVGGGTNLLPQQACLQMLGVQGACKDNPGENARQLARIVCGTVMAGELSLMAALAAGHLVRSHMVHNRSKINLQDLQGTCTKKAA

[2] = Selectivity in vivo against rat assay; A - greater inhibition in liver than in spleen, testes, kidney; type: functional, organism-based
[3] = Selectivity in vivo against rat assay; NS - no significant difference between organs; type: functional, organism-based

Row | SMILES | pIC50 [1] | Selectivity [2] | Selectivity [3]
1 | CC[C@H](C)C(=O)O[C@H]1C[C@@H](C)C=C2C=C[C@H](C)[C@H](CC[C@@H]3C[C@@H](O)CC(=O)O3)[C@H]21 [LOVASTATIN] | 7.96 | A | –
2 | CCC(C)C(=O)O[C@H]1C[C@@H](C)C[C@@H]2C=CC[C@H](CC[C@@H]3C[C@@H](O)CC(=O)O3)[C@@H]12 (stereo partly specified) | 5.82 | – | –
3 | CC/C=C/[C@@H]1C[C@H](OC(=O)C(C)(C)CC)[C@@H]2[C@@H](CC[C@@H]3C[C@@H](O)CC(=O)O3)[C@@H](C)C=C[C@H]2C1 | 7.82 | – | –
4 | CCC/C(C)=C/[C@@H]1C[C@H](OC(=O)C(C)(C)CC)[C@@H]2[C@@H](CC[C@@H]3C[C@@H](O)CC(=O)O3)[C@@H](C)C=C[C@H]2C1 | 8.10 | – | inactive
5 | CCC/C(C)=C/[C@@H]1C[C@H](OC(=O)[C@@H](C)CC)[C@@H]2[C@@H](CC[C@@H]3C[C@@H](O)CC(=O)O3)[C@@H](C)C=C[C@H]2C1 | 7.70 | – | inactive

Continued by rising pIC50 [1], values first:

Row | pIC50 [1] | SMILES | Selectivity [2] | Selectivity [3]
6 | 5.82 | C/C=C\[C@@H]1C[C@H](OC(C)=O)[C@@H]2[C@@H](CC[C@@H]3C[C@@H](O)CC(=O)O3)[C@@H](C)C=C[C@H]2C1 | – | –
7 | 7.00 | C/C=C/[C@@H]1C[C@H](OC(=O)C(C)(C)CC)[C@@H]2[C@@H](/C=C/[C@@H]3C[C@@H](O)CC(=O)O3)[C@@H](C)C=C[C@H]2C1 | – | –
8 | 7.10 | CCC(C)C(=O)O[C@H]1C[C@@H](C)C[C@@H]2C=C[C@H](C)[C@H](CCC(=O)C[C@@H](O)CC(=O)OC)[C@@H]12 (stereo partly specified) | – | –
